Where “and” joins values, the source holds several entries; their conditions need not be identical. Equal values may be shown once. Marks after values point to notes of the source that are not given here.
Tested on: patients with advanced solid tumors
Assay: Treatment-related adverse events and dose-limiting toxicities, phase 1/2a trial CA011-001
Type: in vivo
Procedure: CA011-001 was an open-label study of BMS-986158 monotherapy. Part 1 of the study included a dose-escalation segment and Part 2 was a dose-expansion phase. In Part 1, escalation occurred with an initial dose of BMS-986158 and increased in prespecified increments above the previous dose level until the first occurrence of any protocol-defined dose-limiting toxicity (DLT). Overall, 3 dosing schedules were evaluated to test safety and efficacy (Supplemental Figure S1). Each patient on schedules A, B, and C was administered a single oral dose of BMS-986158 on cycle 1 day 1 (C1D1), and no additional doses were administered until cycle 2 day 1 (C2D1; ≈7 days after C1D1). Beginning on C2D1 and for each subsequent cycle, patients received treatment according to the following schedules. On schedule A, BMS-986158 was administered once daily (QD) for 5 days on and 2 days off with 0.75-, 1.25-, 2.0-, 3.0-, and 4.5-mg escalating doses. On schedule B, patients received BMS-986158 QD for 14 days on and 7 days off with 2.0- and 3.0-mg doses. On schedule C, BMS-986158 QD was given for 7 days on and 14 days off with 2.0-, 3.0-, and 4.5-mg doses. Dose escalation was guided by a modified toxicity probability interval (mTPI) design. In the mTPI design, 3 to 4 patients would be enrolled at each dose level; if a DLT was observed, an additional 3 to 4 patients would be evaluated at the same dose level, up to a total of 13 patients. If no DLTs occurred, 3 to 4 patients would be enrolled at the next dose level. The target DLT rate was 27% to determine the maximum tolerated dose (MTD). For Part 2 of this trial (the dose-expansion phase), schedule A dosing was selected based on safety, pharmacodynamics, and PK data collected in Part 1. The dosing regimen for Part 2 was 4.5 mg for 2 weeks (10 doses) followed by 3.75 mg for the remainder of treatment. However, because study CA011-001 was terminated early with 1 patient enrolled in Part 2, we have grouped this patient with the schedule A, 4.5-mg cohort in Part 1 for the remainder of this report.
Safety was assessed as adverse events (AEs) coded by the Medical Dictionary for Regulatory Activities version 24.0 and the National Cancer Institute’s Common Terminology Criteria for Adverse Events version 4.03. In addition, AEs were classified by whether they were considered possibly or probably treatment related (TRAEs) by investigator assessment, qualified as a serious AE, or led to interruption or discontinuation of study therapy.
All treated patients who received ≥1 dose of BMS-986158 were evaluated in the safety population. […] All treated patients with available and sufficient serum or plasma samples for the corresponding analytes were included in the PK analyses. […] ECG parameters were evaluated in a categorical analysis, and linear mixed-effects regression modeling was used to describe the quantitative relationship between ΔQTcF and time-matched serum concentrations of BMS-986158 or its metabolite at a single dose.
Descriptive summary statistics, including means and 95% CIs, were calculated using the Clopper-Pearson method for ORR and Kaplan–Meier method for PFS and OS. During dose escalation, an mTPI design targeted a 27% DLT rate to guide escalation decisions and the MTD selection. In the dose-escalation segment, the target enrollment was up to 30 patients per schedule and 3–13 DLT-evaluable patients at a dose level, with an aim to determine the MTD. The totality of the data, including PK, pharmacodynamics, and patient overall safety, including at lower dose levels, was also used to select the RP2D.

[1] = Schedule A (5 days on, 2 days off), n = 46
[2] = Schedule B (14 days on, 7 days off), n = 8
[3] = Schedule C (7 days on, 14 days off), n = 29

Cc1nnn(C)c1-c1cnc2c3ccc(C(C)(C)O)cc3n([C@H](c3ccccc3)C3CCOCC3)c2c1 [BMS-986158]
Treatment discontinuation due to a TRAE (grade 3 myocardial infarction) (1 patient, schedule A group at the 4.5-mg dose, of all patients): 1.2%
Incidence of TRAEs (Schedule A (5 days on, 2 days off)): 72% and 71.7%
Anemia (TRAE), any grade [1]: 6 (13.0) n (%)
Anemia (TRAE), grade ≥ 3 [1]: 2 (4.3) n (%)
Decreased appetite (TRAE), any grade [1]: 5 (10.9) n (%)
Decreased appetite (TRAE), grade ≥ 3 [1]: 0 n (%)
Diarrhea (TRAE), any grade [1]: 19 (41.3) n (%)
Diarrhea (TRAE), grade ≥ 3 [1]: 0 n (%)
Discontinuations due to TRAEs, any grade [1]: 1 (2.2) ^d n (%)
Discontinuations due to TRAEs, grade ≥ 3 [1]: 1 (2.2) ^d n (%)
Fatigue (TRAE), any grade [1]: 8 (17.4) n (%)
Fatigue (TRAE), grade ≥ 3 [1]: 2 (4.3) n (%)
Nausea (TRAE), any grade [1]: 7 (15.2) n (%)
Nausea (TRAE), grade ≥ 3 [1]: 1 (2.2) n (%)
Patients with any TRAE, any grade [1]: 33 (71.7) n (%)
Patients with any TRAE, grade ≥ 3 [1]: 19 (41.3) n (%)
Serious TRAEs, any grade [1]: 3 (6.5) ^a,d n (%)
Serious TRAEs, grade ≥ 3 [1]: 3 (6.5) ^a,d n (%)
Thrombocytopenia (TRAE), any grade [1]: 20 (43.5) n (%)
Thrombocytopenia (TRAE), grade ≥ 3 [1]: 16 (34.8) n (%)
Vomiting (TRAE), any grade [1]: 5 (10.9) n (%)
Vomiting (TRAE), grade ≥ 3 [1]: 0 n (%)
DLT grade 4 thrombocytopenia (Schedule A, 2.0 mg): 1/13
DLT grade 4 thrombocytopenia (Schedule A, 3.0 mg): 1/10
DLT grade 4 thrombocytopenia (Schedule A, 4.5 mg): 2/13
Serious TRAEs, incidence (Schedule A, 3 of 46 patients): 6.5%
Anemia (TRAE), any grade [2]: 2 (25.0) n (%)
Anemia (TRAE), grade ≥ 3 [2]: 2 (25.0) n (%)
Decreased appetite (TRAE), any grade [2]: 4 (50.0) n (%)
Decreased appetite (TRAE), grade ≥ 3 [2]: 0 n (%)
Diarrhea (TRAE), any grade [2]: 4 (50.0) n (%)
Diarrhea (TRAE), grade ≥ 3 [2]: 0 n (%)
Discontinuations due to TRAEs, any grade [2]: 0 n (%)
Discontinuations due to TRAEs, grade ≥ 3 [2]: 0 n (%)
Fatigue (TRAE), any grade [2]: 4 (50) n (%)
Fatigue (TRAE), grade ≥ 3 [2]: 1 (12.5) n (%)
Incidence of TRAEs [2]: 100%
Nausea (TRAE), any grade [2]: 1 (12.5) n (%)
Nausea (TRAE), grade ≥ 3 [2]: 1 (12.5) n (%)
Patients with any TRAE, any grade [2]: 8 (100.0) n (%)
Patients with any TRAE, grade ≥ 3 [2]: 4 (50.0) n (%)
Serious TRAEs, any grade [2]: 2 (25.0) ^b n (%)
Serious TRAEs, grade ≥ 3 [2]: 2 (25.0) ^b n (%)
Thrombocytopenia (TRAE), any grade [2]: 5 (62.5) n (%)
Thrombocytopenia (TRAE), grade ≥ 3 [2]: 2 (25.0) n (%)
Vomiting (TRAE), any grade [2]: 2 (25.0) n (%)
Vomiting (TRAE), grade ≥ 3 [2]: 1 (12.5) n (%)
DLT grade 4 thrombocytopenia (Schedule B, 3.0 mg): 2/4
Serious TRAEs, incidence (Schedule B, 2 of 8 patients): 25.0%
Incidence of TRAEs (Schedule C (7 days on, 14 days off)): 72% and 72.4%
Anemia (TRAE), any grade [3]: 4 (13.8) n (%)
Anemia (TRAE), grade ≥ 3 [3]: 1 (3.4) n (%)
Decreased appetite (TRAE), any grade [3]: 3 (10.3) n (%)
Decreased appetite (TRAE), grade ≥ 3 [3]: 0 n (%)
Diarrhea (TRAE), any grade [3]: 13 (44.8) n (%)
Diarrhea (TRAE), grade ≥ 3 [3]: 0 n (%)
Discontinuations due to TRAEs, any grade [3]: 0 n (%)
Discontinuations due to TRAEs, grade ≥ 3 [3]: 0 n (%)
Fatigue (TRAE), any grade [3]: 4 (13.8) n (%)
Fatigue (TRAE), grade ≥ 3 [3]: 0 n (%)
Nausea (TRAE), any grade [3]: 6 (20.7) n (%)
Nausea (TRAE), grade ≥ 3 [3]: 0 n (%)
Patients with any TRAE, any grade [3]: 21 (72.4) n (%)
Patients with any TRAE, grade ≥ 3 [3]: 5 (17.2) n (%)
Serious TRAEs, any grade [3]: 0 n (%)
Serious TRAEs, grade ≥ 3 [3]: 0 n (%)
Thrombocytopenia (TRAE), any grade [3]: 7 (24.1) n (%)
Thrombocytopenia (TRAE), grade ≥ 3 [3]: 3 (10.3) n (%)
Vomiting (TRAE), any grade [3]: 3 (10.3) n (%)
Vomiting (TRAE), grade ≥ 3 [3]: 1 (3.4) n (%)
Serious TRAEs (Schedule C cohort (n = 29)): no serious TRAEs were reported
DLT grade 4 thrombocytopenia (Schedule C, 4.5 mg): 2/10
Anemia (TRAE), any grade (Total, N = 83): 12 (14.5) n (%)
Anemia (TRAE), grade ≥ 3 (Total, N = 83): 5 (6.0) n (%)
Decreased appetite (TRAE), any grade (Total, N = 83): 12 (14.5) n (%)
Decreased appetite (TRAE), grade ≥ 3 (Total, N = 83): 0 n (%)
Diarrhea (TRAE), any grade (Total, N = 83): 36 (43.4) n (%)
Diarrhea (TRAE), grade ≥ 3 (Total, N = 83): 0 n (%)
Discontinuations due to TRAEs, any grade (Total, N = 83): 1 (1.2) ^d n (%)
Discontinuations due to TRAEs, grade ≥ 3 (Total, N = 83): 1 (1.2) ^d n (%)
Fatigue (TRAE), any grade (Total, N = 83): 16 (19.3) n (%)
Fatigue (TRAE), grade ≥ 3 (Total, N = 83): 3 (3.6) n (%)
Nausea (TRAE), any grade (Total, N = 83): 14 (16.9) n (%)
Nausea (TRAE), grade ≥ 3 (Total, N = 83): 2 (2.4) n (%)
Patients with any TRAE, any grade (Total, N = 83): 62 (74.7) n (%)
Patients with any TRAE, grade ≥ 3 (Total, N = 83): 28 (33.7) n (%)
Serious TRAEs, any grade (Total, N = 83): 5 (6.0) ^c,d n (%)
Serious TRAEs, grade ≥ 3 (Total, N = 83): 5 (6.0) ^c,d n (%)
Thrombocytopenia (TRAE), any grade (Total, N = 83): 32 (38.6) n (%)
Thrombocytopenia (TRAE), grade ≥ 3 (Total, N = 83): 21 (25.3) n (%)
Vomiting (TRAE), any grade (Total, N = 83): 10 (12.0) n (%)
Vomiting (TRAE), grade ≥ 3 (Total, N = 83): 2 (2.4) n (%)
Anemia as any-grade TRAE, incidence (all patients): 14.5%
Decreased appetite as any-grade TRAE, incidence (all patients): 14.5%
Fatigue as any-grade TRAE, incidence (all patients): 19.3%
Nausea as any-grade TRAE, incidence (all patients): 16.9%
Thrombocytopenia as grade ≥ 3 TRAE, incidence (all patients): 25.3%
Vomiting as any-grade TRAE, incidence (all patients): 12.0%
Thrombocytopenia as TRAE, incidence (all patients, any grade): 39% and 38.6%
Diarrhea as TRAE, incidence (all treatment schedule cohorts, 83 patients, any grade): 43% and 43.4%
Patients who experienced DLTs (among 83 patients, all in part 1): 9
Patients with grade 3 nausea as a DLT (of 4 patients, Schedule B, 2.0-mg cohort): 1
Serious TRAEs, incidence (overall study population, 5 of 83 patients): 6%

From PMC9454848, “BMS-986158, a Small Molecule Inhibitor of the Bromodomain and Extraterminal Domain Proteins, in Patients with Selected Advanced Solid Tumors: Results from a Phase 1/2a Trial” (Cancers, 2022)
